Experimental data taken from patent US7625879B2 (priority 1998, dated 2009).
Counter-ions that a name gives are not always drawn.

Experiments:
Tγ9δ2 lymphocytes [1] = experiment: Stimulation of the proliferation of Tγ9δ2 lymphocytes in a culture; format: cell-based, human; conditions: effective dose at 50% of the maximum polyclonal lymphocyte amplification effect; 8 days culture with hIL-2; read-out: ED 50% (the source's name)
Protocol: 20 microliters of the aqueous solution of the compound according to the invention adjusted to the final concentration specified in the test are added to an in vitro culture of 10^6 total T lymphocytes in 1 ml, separated from the blood of a healthy adult human donor and initially containing 1-5% of Tγ9δ2 lymphocytes, in an adequate culture medium (RPMI 1640+10% of inactivated human serum and 50 U/ml of human interleukin-2 (hIL-2)). After culturing for 4 days, 50 U of dIL-2 are added per milliliter of culture medium. After 8 days, the cells are counted, collected, washed with phosphate buffer, and the Tγ9δ2 type cells are detected in the culture by labeling with conventional commercial reagents (fluorescein-labeled monoclonal antibodies) and the proportion thereof determined by flux cytometry analysis. The parameter measured is either the change in the proportion of or the increase in the number of Tγ9δ2 cells in cultures in the presence of the compound according to the invention in comparison with cultures not containing a compound according to the invention.

Tγ9δ2 lymphocytes [2] = experiment: In vivo bioactivity in the macaque: Tγ9δ2 lymphocytes in the blood; design: species or system Macaca fascicularis; conditions: for % of Tγ9δ2 lymphocytes in the blood in vivo (7 days after injection): animals injected BrHPP only
Protocol: (§1) These tests are performed on monkeys of the species Macaca fascicularis (males weight 3-4 kg) anaesthetized with 15 mg/kg Zoletil (zolazepam)®/0.01 mg/kg atropine. The batches of BrHPP (in NA^+ form) are subjected to prior purity testing (>99%), quantified and have been tested in accordance with the pyrogenicity tests of Example 12. The animals are injected by rapid intravenous injection (2-5 minutes into the saphenous vein) with 0.1 mg/kg of BrHPP (i.e. 0.3-0.4 mg per animal) diluted in 10 ml of Ringer lactate. Each animal also receives a subcutaneous injection of 90,000 units of interleukin-2 (IL-2). These injections are performed once daily for four days. Control animals receive only the subcutaneous injection of IL-2 once daily for four days.
(§2) The proportion of Tγ9δ2 lymphocytes in total lymphocytes in the various animals is compared in the following three situations: • in the animal's bloodstream, • in a culture of total lymphocytes taken from the animal receiving only BrHPP, • in a culture of total lymphocytes talken from the animal receiving BrHPP+IL-2.

Tγ9δ2 lymphocytes [3] = experiment: Reactivity ex vivo of Tγ9δ2 lymphocytes from injected macaques in culture; format: cell-based, Macaca fascicularis
Protocol: as §1, §2

[4] = Toxicity of BrHPP (sodium salt) in mice, intravenous injection; format: in vivo
Protocol: Eight 30 g mice received an intravenous injection (caudal vein) of 300 μl of PBS buffer containing 1 mg of BrHPP (sodium salt). […] Toxicity is thus less than 12.5% for a dose of 33.4 mg of BrHPP (Na^+) per kilogram of animal body weight.

[5] = Pyrogenicity in rabbits (ISO-10993-11, USP XXIII); format: in vivo
Protocol: This test is performed in accordance with a protocol specified by standards ISO-10993-11 (1993) and USP XXIII. […] Temperature is taken every 30 minutes for 3 hours starting 30 minutes after the injection.

Tγ9δ2 lymphocyte clone = experiment: Stimulation of induced cytotoxicity of a Tγ9δ2 lymphocyte clone
human Tγ9δ2 lymphocytes = conditions: cited from earlier work
[6] = animals injected BrHPP only, twice (1 injection + 1 booster)

Question: With “3-(iodomethyl)-3-butanol-1-yl diphosphate [IHPP]” as the compound, how does the EC50 (Tγ9δ2 lymphocytes [1]) read?
Answer: The EC50 was 3 nM.

Question: Which EC50 (Tγ9δ2 lymphocytes [1]) does the source give for “3-(chloromethyl)-3-butanol-1-yl diphosphate [CIHPP]” here?
Answer: The EC50 was 100 nM.

Question: Which EC50 (Tγ9δ2 lymphocytes [1]) does the source give for CC(O)(CI)CCOP(=O)(O)OP(=O)(O)OP(=O)(O)O (stereo not shown) [IHPPP, 3-(iodomethyl)-3-butanol-1-yl triphosphate] here?
Answer: The EC50 was 70 nM.

Question: For “3-(bromomethyl)-3-butanol-1-yl diphosphate [BrHPP]”, which EC50 (Tγ9δ2 lymphocytes [1]) is on record?
Answer: Its EC50 is 10 nM.

Question: And the “% of Tγ9δ2 lymphocytes in the blood in vivo (7 days after injection)” value (Tγ9δ2 lymphocytes [2]; i.v. 0.1 mg/kg, Na+ form)?
Answer: The value was ~1%.

Question: And the “% of Tγ9δ2 lymphocytes in the blood in vivo (7 days after injection)” value (Tγ9δ2 lymphocytes [2]; twice (1 injection + 1 booster))?
Answer: The value was ~1%.

Question: What about the “effect on the monkey's Tγ9δ2 lymphocytes in vivo” value (Tγ9δ2 lymphocytes [2]; intravenous injection of BrHPP in the presence of subcutaneous IL-2) of the same compound?
Answer: The value was “preactivates these same cells and brings about the growth thereof in vivo”.

Question: And the “effect on the monkey's Tγ9δ2 lymphocytes in vivo” value (Tγ9δ2 lymphocytes [2]; single or repeated intravenous injection of BrHPP alone)?
Answer: The value was “preactivates the monkey's Tγ9δ2 lymphocytes, but does not stimulate the growth thereof in the animal”.

Question: And the “Reactivity ex vivo of Tγ9δ2 lymphocytes (% after 10 days' culturing in vitro), Amplification by 40 nM BrHPP” value (Tγ9δ2 lymphocytes [3]; animals injected BrHPP + IL-2)?
Answer: Its value is 10%.

Question: And the “Reactivity ex vivo of Tγ9δ2 lymphocytes (% after 10 days' culturing in vitro), Amplification by 40 nM BrHPP + IL-2” value (Tγ9δ2 lymphocytes [3]; animals injected BrHPP + IL-2)?
Answer: Its value is 50.0%.

Question: And the “Reactivity ex vivo of Tγ9δ2 lymphocytes (% after 10 days' culturing in vitro), Amplification by 40 nM BrHPP” value (Tγ9δ2 lymphocytes [3]; animals injected BrHPP only)?
Answer: The value was 1%.

Question: What about the “Reactivity ex vivo of Tγ9δ2 lymphocytes (% after 10 days' culturing in vitro), Amplification by 40 nM BrHPP” value (Tγ9δ2 lymphocytes [3]; [6]) of the same compound?
Answer: Its value is 1%.

Question: What about the “Reactivity ex vivo of Tγ9δ2 lymphocytes (% after 10 days' culturing in vitro), Amplification by 40 nM BrHPP + IL-2” value (Tγ9δ2 lymphocytes [3]; [6]) of the same compound?
Answer: The value was 40.2%.

Question: With “α,γ di-[3-(iodomethyl)-3-butanol-1-yl] triphosphate [di-IHTP]” as the compound, how does the EC50 (Tγ9δ2 lymphocytes [1]) read?
Answer: The EC50 was 7000 nM.

Question: For CC(O)(CBr)CCOP(=O)(O)OP(=O)(O)O (stereo not shown) [BrHPP (sodium salt), 3-(bromomethyl)-3-butanol-1-yl diphosphate], which Toxicity ([4]; dose of 33.4 mg per kilogram of animal body weight, i.v.) is on record?
Answer: The Toxicity was “less than 12.5%”.

Question: What about the “signs of shock or pyrogenicity” value ([4]; eight 30 g mice, i.v. caudal vein, 1 mg in 300 μl PBS) of the same compound?
Answer: Its value is “No sign of shock or pyrogenicity”.

Question: What about the “variation in the weight of the mice” value ([4]; i.v. 1 mg per 30 g mouse, during the study) of the same compound?
Answer: The value was “no significant variation”.

Question: And the “mice still alive after 30 days” value ([4]; of eight mice, i.v. 1 mg per 30 g mouse)?
Answer: The value was 8 mice.

Question: And the side-effect on injection ([5]; 400 μg/ml solution, i.v.)?
Answer: The side-effect on injection was “muscle tremors”.

Question: And the “reaction to the injection” value ([5]; solution diluted 1:40 to 10 μg/ml, one rabbit, in 19 minutes)?
Answer: Its value is “no reaction to the injection”.

Question: What about the “febrile reaction (increase in temperature greater than 0.5° C.)” value ([5]; three rabbits, i.v. 400 μg/ml, 10 ml per kilogram, 3 hours) of the same compound?
Answer: The value was “Only one rabbit exhibited an increase in temperature of greater than 0.5 °C”.

Question: For isopentenyl pyrophosphate [IPP], which “concentration at which active in induced cytotoxicity test” value (Tγ9δ2 lymphocyte clone; Tγ9δ2 lymphocyte clone, decreasing concentrations, FIG. 2) is on record?
Answer: Its value is ~3000 nM.

Question: What about the “active concentration relative to the compounds according to the invention” value (Tγ9δ2 lymphocyte clone; induced cytotoxicity test) of the same compound?
Answer: The value was ~300 times higher.

Question: And the “minimum active concentration (no activity demonstrated below)” value (human Tγ9δ2 lymphocytes; best results obtained, prior art compounds)?
Answer: Its value is ≥ 3 µM.

Question: What about the “minimum active concentration relative to natural phosphoantigens” value (human Tγ9δ2 lymphocytes) of the same compound?
Answer: Its value is ~1000 times higher.

Question: And the EC50 (Tγ9δ2 lymphocytes [1])?
Answer: The EC50 was 3000 nM.

Question: For CC(O)(CBr)CCOP(=O)(O)OP(=O)(O)OP(=O)(O)O (stereo not shown) [BrHPPP, 3-(bromomethyl)-3-butanol-1-yl triphosphate], which EC50 (Tγ9δ2 lymphocytes [1]) is on record?
Answer: Its EC50 is 120 nM.

Question: Which EC50 (Tγ9δ2 lymphocytes [1]) does the source give for CC(O)(CBr)CCOP(=O)(O)OP(=O)(O)OP(=O)(O)OCCC(C)(O)CBr (stereo not drawn) [di-BrHTP, α,γ di-[3-(bromomethyl)-3-butanol-1-yl] triphosphate] here?
Answer: The EC50 was 3000 nM.
